Measured values from patent US12414980B2, “Pharmaceutical composition comprising RUNX3 protein and CDK4 inhibitor or mTOR inhibitor cotreatment for prevention or treatment of cancer” (GeneCraft Inc., priority 2020, dated 2025).

How the values were obtained:
Runx3-BRD2 complex = Runx3-BRD2 complex formation after serum stimulation, immunoprecipitation (IP) and immunoblotting (IB); format: cell-based; conditions: for time for which the binding of Runx3 and BRD2 was maintained: after serum stimulation
normal cells = conditions: cited from earlier work
[1] = tested on: H460 lung cancer cell line; conditions: administered simultaneously with adenovirus expressing Runx3 protein, FIG. 8
[2] = tested on: PANC1 pancreatic cancer cell line; conditions: administered simultaneously with adenovirus expressing Runx3 protein, FIG. 8
p300-RUNX3 complex = conditions: treatment with MEK1 inhibitor (1 μM per methods); FIG. 3a
ARF = assay: time-dependent expression of ARF after serum stimulation, immunoblotting (IB); format: cell-based; conditions: suppression of mTOR using rapamycin (100 nM per methods); FIG. 3h
From the text: HDAC4 siRNA was purchased from Cell Signaling Technology.

physical binding between Runx3 and Brd2 8 hours after serum stimulation (Runx3-BRD2 complex; CDK4 inhibitor at 1 nM)	Compound	time for which the binding of Runx3 and BRD2 was maintained (Runx3-BRD2 complex; CDK4 inhibitor present at 11 nM, FIG. 5)	toxicity to normal cells (normal cells; concentration of 11 nM)	cancer apoptotic effect versus adenovirus expressing Runx3 protein alone [1]	cancer apoptotic effect versus adenovirus expressing Runx3 protein alone [2]	binding of BRD2-RUNX3 (Runx3-BRD2 complex; treatment with MEK1 inhibitor (1 μM per methods), FIG. 3a)	binding of p300-RUNX3 (p300-RUNX3 complex)	time for which the binding of Runx3 and BRD2 was maintained (Runx3-BRD2 complex; mTOR inhibitor present at 100 nM, FIG. 6)	maintenance of Rpa-RX3-AC (Runx3-BRD2 complex; suppression of mTOR using rapamycin (100 nM per methods), FIG. 3h)	time to which the expression of ARF was extended (ARF)	cytotoxicity to normal cells (normal cells; concentration of 100 nM)
not observed	CC(=O)c1c(C)c2cnc(Nc3ccc(N4CCNCC4)cn3)nc2n(C2CCCC2)c1=O [PD0332991]	up to 8 hours	non-toxic	significantly increased	significantly increased						
	N#CC(=C(/N)Sc1ccccc1N)/C(C#N)=C(\N)Sc1ccccc1N [U0126]					inhibited	inhibited				
	CO[C@H]1C[C@@H]2CC[C@@H](C)[C@@](O)(O2)C(=O)C(=O)N2CCCC[C@H]2C(=O)O[C@H]([C@H](C)C[C@@H]2CC[C@@H](O)[C@H](OC)C2)CC(=O)[C@H](C)/C=C(\C)[C@@H](O)[C@@H](OC)C(=O)[C@H](C)C[C@H](C)/C=C/C=C/C=C/1C [rapamycin]			significantly increased	significantly increased			up to 8 hours	maintained	up to 8 hours	non-cytotoxic
